From patent publication US8092810B2, “Use of polypeptides having antimicrobial activity” (Novozymes A/S, priority 2006, dated 2012)
≈ marks a conversion by molar mass, not a printed value. Where two headings read alike, the source gives them in different places.

Experiments:
Experiment in all cases: MIC broth microdilution
Assay type in all cases: cell-based
[1] = system: Burkholderia cepacia ATCC 25416
[2] = system: Streptococcus pneumoniae ATCC 49619
Method: (§1) Briefly, the MIC was determined by microbroth dilution assay in a 96 well plate. 4-5 colonies of each bacterium tested were added to 5 ml of MHB, placed in a 35° C. shaker until the OD 600 nm reached 0.08-0.10. The inoculum was diluted 1:100 and 50 microliters were added to each well which contained 50 microliters of serial two fold dilutions of Lento, vancomycin or ciprofloxacin. Each concentration of antibiotic or Lento was tested in duplicate. The plate was placed at 35° C. overnight. MICs were determined after 24 hours incubation and defined by the well containing the lowest amount of antibiotic with no visible growth.

[3] = system: Acinetobacter sp. ATCC 49137
Method: as §1

[4] = system: Staphylococcus aureus subsp. aureus (MRSA) ATCC 700788
Method: as §1

[5] = system: Staphylococcus epidermidis ATCC 12228; conditions: Staphylococcus epidermidis, ATCC12228, 24 h
Method: as §1

[6] = system: Enterococcus faecalis (VRE) ATCC 51299
Method: as §1

[7] = system: Staphylococcus aureus (GISA) ATCC 700699
Method: as §1

[8] = system: Eschericia coli ATCC 25922
Method: as §1

[9] = system: Staphylococcus aureus ATCC 27734
Method: as §1

[10] = system: Staphylococcus aureus subsp. aureus (MRSA & GISA) ATCC 700789
Method: as §1

[11] = system: Eschericia coli ATCC 35218; conditions: 24 h
Method: as §1

[12] = system: Eschericia coli ATCC 10536
Method: as §1

[13] = system: Corynebacterium jeikeium ATCC 43734; conditions: Corynebacterium jeikeium, ATCC43734, 24 h
Method: as §1

[14] = system: Salmonella typhimurium ATCC 13311; conditions: Salmonella enterica
Method: as §1

[15] = system: Shigella dysenteriae ATCC 11835; conditions: Shigella dysenteriae, ATCC11835, 24 h
Method: as §1

[16] = system: Streptococcus pneumoniae (PSRSP) ATCC 700671
Method: as §1

[17] = system: Streptococcus pneumoniae ATCC 700676
Method: as §1

[18] = system: Staphylococus aureus (GISA) ATCC 700787
Method: as §1

[19] = system: Streptococcus pneumoniae (TCRSP) ATCC 700902
Method: as §1

[20] = system: Enterococcus faecium ATCC 51559; conditions: ATCC51559; Enterococcus faecium ATCC 51559, Gram +; MHB, 35° C., 24 hours; read-out: MIC
Method: as §1

[21] = system: Micrococcus luteus ATCC 9341
Method: as §1

[22] = system: Staphylococcus aureus ATCC 29737; conditions: Staphylococcus aureus, ATCC29737, 24 h
Method: as §1

[23] = system: Klebsiella pneumoniae ATCC 10031; conditions: ATCC10031, 24 h
Method: as §1

[24] = system: Corynebacterium jeikeium ATCC 43216; conditions: Corynebacterium jeikeium, ATCC43216, 24 h
Method: as §1

[25] = system: Staphylococcus aureus ATCC 29213; conditions: Staphylococcus aureus, ATCC29213, 24 h
Method: as §1

[26] = system: Stenotrophomas maltophilia ATCC 13637; conditions: 24 h
Method: as §1

[27] = system: Bacillus cereus ATCC 4342; conditions: Bacillus cereus, ATCC4342, 24 h
Method: as §1

[28] = system: Staphylococcus aureus (MRSA) ATCC 33591; conditions: 24 h
Method: as §1

[29] = system: Pseudomonas aeruginosa ATCC 27853; conditions: ATCC27853, 24 h
Method: as §1

O=C(O)c1cn(C2CC2)c2cc(N3CCNCC3)c(F)cc2c1=O [Ciprofloxacin]
MIC ([1]; ATCC25416, Burkholderia cepacia ATCC 25416, Gram −, MHB, 35° C., 24 hours, read-out: MIC): 0.25 µg/mL (≈ 0.754 µM) | MIC ([2]; ATCC49619, Streptococcus pneumoniae ATCC 49619, Gram +, MHB, 35° C., 24 hours, read-out: MIC): 0.5 µg/mL (≈ 1.51 µM) | MIC ([3]; ATCC49137, Acinetobacter sp. ATCC 49137, Gram −, MHB, 35° C., 24 hours, read-out: MIC): 0.0625 µg/mL (≈ 0.189 µM) | MIC ([4]; Staphylococcus aureus subsp. aureus (MRSA) ATCC 700788, Gram +, MHB, 35° C., 24 hours, read-out: MIC): 8 µg/mL (≈ 24.1 µM) | MIC [5]: 0.0625 µg/mL (≈ 0.189 µM) | MIC ([6]; Enterococcus faecalis (VRE) ATCC 51299, Gram +, MHB, 35° C., 24 hours, read-out: MIC): 0.5 µg/mL (≈ 1.51 µM) | MIC ([7]; ATCC700699, Staphylococcus aureus (GISA) ATCC 700699, Gram +, MHB, 35° C., 24 hours, read-out: MIC): 16 µg/mL (≈ 48.3 µM) | MIC ([8]; Eschericia coli ATCC 25922, Gram −, MHB, 35° C., 24 hours, read-out: MIC): 0.0625 µg/mL (≈ 0.189 µM) | MIC ([9]; ATCC27734, Staphylococcus aureus ATCC 27734, Gram +, MHB, 35° C., 24 hours, read-out: MIC): 8 µg/mL (≈ 24.1 µM) | MIC ([10]; Staphylococcus aureus subsp. aureus (MRSA & GISA) ATCC 700789, Gram +, MHB, 35° C., 24 hours, read-out: MIC): 16 µg/mL (≈ 48.3 µM) | MIC [11]: 0.0625 µg/mL (≈ 0.189 µM) | MIC ([12]; Eschericia coli ATCC 10536, Gram −, MHB, 35° C., 24 hours, read-out: MIC): 0.0625 µg/mL (≈ 0.189 µM) | MIC [13]: 0.0625 µg/mL (≈ 0.189 µM) | MIC ([14]; Salmonella typhimurium ATCC 13311, Gram −, MHB, 35° C., 24 hours, read-out: MIC): 0.0625 µg/mL (≈ 0.189 µM) | MIC [15]: 0.0625 µg/mL (≈ 0.189 µM) | MIC ([16]; ATCC700671, Streptococcus pneumoniae (PSRSP) ATCC 700671, Gram +, MHB, 35° C., 24 hours, read-out: MIC): 1 to 2 µg/mL (≈ 3.02 to 6.04 µM) | MIC ([17]; ATCC700676, Streptococcus pneumoniae ATCC 700676, Gram +, MHB, 35° C., 24 hours, read-out: MIC): 1 µg/mL (≈ 3.02 µM) | MIC ([18]; Staphylococus aureus (GISA) ATCC 700787, Gram +, MHB, 35° C., 24 hours, read-out: MIC): 16 µg/mL (≈ 48.3 µM) | MIC ([19]; ATCC700902, Streptococcus pneumoniae (TCRSP) ATCC 700902, Gram +, MHB, 35° C., 24 hours, read-out: MIC): 0.5 to 1 µg/mL (≈ 1.51 to 3.02 µM) | MIC [20]: > 64 µg/mL | MIC ([21]; ATCC9341, Micrococcus luteus ATCC 9341, Gram +, MHB, 35° C., 24 hours, read-out: MIC): 1 µg/mL (≈ 3.02 µM) | MIC [22]: 0.0625 to 0.25 µg/mL (≈ 0.189 to 0.754 µM)

CN[C@H](CC(C)C)C(=O)N[C@H]1C(=O)N[C@@H](CC(N)=O)C(=O)N[C@H]2C(=O)N[C@H]3C(=O)N[C@H](C(=O)N[C@H](C(=O)O)c4cc(O)cc(O)c4-c4cc3ccc4O)[C@H](O)c3ccc(c(Cl)c3)Oc3cc2cc(c3O[C@@H]2O[C@H](CO)[C@@H](O)[C@H](O)[C@H]2O[C@H]2C[C@](C)(N)[C@H](O)[C@H](C)O2)Oc2ccc(cc2Cl)[C@H]1O [Vancomycin, vancomycin]
MIC ([1]; Burkholderia cepacia, ATCC25416, 24 h): > 64 µg/mL | MIC ([2]; Streptococcus pneumoniae, ATCC49619, 24 h): 0.5 to 1 µg/mL (≈ 0.345 to 0.69 µM) | MIC ([3]; Acinetobacter, ATCC49137, 24 h): > 64 µg/mL | MIC ([4]; Staphylococcus aureus, 24 h): 2 µg/mL (≈ 1.38 µM) | MIC [5]: 1 µg/mL (≈ 0.69 µM) | MIC ([6]; Enterococcus faecalis, 24 h): 2 µg/mL (≈ 1.38 µM) | MIC ([7]; Staphylococcus aureus, ATCC700699, 24 h): 8 µg/mL (≈ 5.52 µM) | MIC [23]: > 64 µg/mL | MIC ([8]; 24 h): > 64 µg/mL | MIC ([9]; Staphylococcus aureus, ATCC27734, 24 h): 1 µg/mL (≈ 0.69 µM) | MIC ([10]; Staphylococcus aureus, 24 h): 2 µg/mL (≈ 1.38 µM) | MIC [11]: > 64 µg/mL | MIC ([12]; 24 h): > 64 µg/mL | MIC [24]: 0.25 µg/mL (≈ 0.173 µM) | MIC [13]: 0.25 µg/mL (≈ 0.173 µM) | MIC ([14]; 24 h): > 64 µg/mL | MIC [15]: > 64 µg/mL | MIC ([16]; Streptococcus pneumoniae, ATCC700671, 24 h): 0.5 µg/mL (≈ 0.345 µM) | MIC ([17]; Streptococcus pneumoniae, ATCC700676, 24 h): 0.25 µg/mL (≈ 0.173 µM) | MIC [25]: 0.5 µg/mL (≈ 0.345 µM) | MIC ([18]; 24 h): 8 µg/mL (≈ 5.52 µM) | MIC [26]: 32 µg/mL (≈ 22.1 µM) | MIC ([19]; Streptococcus pneumoniae, ATCC700902, 24 h): 0.25 µg/mL (≈ 0.173 µM) | MIC [27]: 1 µg/mL (≈ 0.69 µM) | MIC [28]: 1 µg/mL (≈ 0.69 µM) | MIC ([21]; Micrococcus luteus, ATCC9341, 24 h): 0.5 µg/mL (≈ 0.345 µM) | MIC [22]: 0.5 µg/mL (≈ 0.345 µM) | MIC [29]: > 64 µg/mL
